Data on six molecules can be found in patent US20080194491A1, “Methods of Diagnosing, Preventing, and Treating Early Onset of Pulmonary Hypertension” (priority 2002, published 2008).

For assay [1], the system named is mammary epithelial cells. The settings on record: absence of extracellular matrix; cited from earlier work.
The subject of assay [2] is lung apoptosis after MCT. The assay is described as follows: Early caspase inhibition after MCT: lung apoptosis by TUNEL assay. Format: in vivo, Rats. The protocol: The methods set out in Example 3 were employed. In this set of experiments, the inventors tried to establish the effect of apoptosis inhibitors on the early development of the apoptotic pathways. They blocked the caspase activity at a much earlier time point (18 hours post MCT injection and another injection 24 hours after that) using two classes of caspase inhibitors, namely Z-Asp (2.5 mg/Kg) and Z-VAD (1.5 mg/Kg; see FIG. 10 for details). Rats were sacrificed 24, 48 and 72 hours post last dose of inhibitors/DMSO injection and lungs were collected for histology and activity assay. Apoptosis were measured by both TUNEL and caspase activity assays, as previously described.

Assay [3] concerns T-lymphocyte cell line. The following applies: cited from earlier work.
The test system of assay [4] is motoneurons. The settings on record: in vitro and in vivo; cited from earlier work.
Assay [5] has as its system Human pulmonary artery cells (HPAEC). The assay can be described thus: HPAEC apoptosis induced by TNF (caspase activity assay). Format: cell-based. The settings on record: pretreatment 100-200 ng/ml for 2 hours, TNF 10-20 ng/ml. The protocol:
(§1) The inventors investigated the effect of BMPR2 signaling on pulmonary endothelial cell proliferation and survival. Human pulmonary artery […] cells (HPAEC) were grown in EBM-2 medium supplemented with 2% FBS and growth factors (Clonetics). Apoptosis was induced either by serum withdrawal (see FIG. 17) or exposure of cells to TNFα. […] Apoptosis was evaluated by three independent methods: 1) flow cytometry using Annexin V, a Ca2+ dependent phospholipid-binding protein with affinity for phosphatidylserine (PS; translocation of PS from the inner leaflet of plasma membrane to the outer layer occurs during the early stage of apoptosis), 2) TUNEL assay and, 3) caspase activity assay.

Assay [6] concerns Human pulmonary artery epithelial cells (HPAEC). The assay is described as follows: HPAEC apoptosis induced by serum withdrawal (flow cytometry Annexin V, TUNEL). Format: cell-based. The settings on record: pretreatment 100-200 ng/ml for 2 hours; flow cytometry and TUNEL assay. The protocol: as §1
On the technique in general: In flow cytometry, cells or beads pass a laser one at a time.

Consider `CC(C)(C)OC(=O)N[C@@H](CC(=O)OCc1ccccc1)C(=O)CCl` [Boc-D-(benzyl) chloromethylketone], for which, in assay [1], the “cell death of mammary epithelial cells” value is given as “prevented”.
For Z-VAD, the inhibition of apoptosis result is “less potent” in assay [2] (48 or 72 hours after the last treatment) and “most effective” in assay [2] (24 hours after the last treatment).
For the molecule acetyl-DEVD-aldehyde, the anti-Fas induced apoptosis result in assay [3] is reported as “inhibited”.
Regarding acetyl-YVAD-aldehyde, the death of motoneurons result in assay [4] is on record as “blocked”.
On to acetyl-YVAD-chloromethylketone, for which the death of motoneurons result in assay [4] is “blocked”.

B1: BMP7: bone morphogenetic protein (protein, UniProt P18075 293-431, looked up)
Bone morphogenetic protein 7: STGSKQRSQNRSKTPKNQEALRMANVAENSSSDQRQACKKHELYVSFRDLGWQDWIIAPEGYAAYYCEGECAFPLNSYMNATNHAIVQTLVHFINPETVPKPCCAPTQLNAISVLYFDDSSNVILKKYRNMVVRACGCH
With B1, in assay [5], the “apoptosis induced by TNF treatment” value was “protect the cells from apoptosis”. The “apoptosis induced by serum withdrawal” value in assay [6] is “protected the cells from apoptosis”.
